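Briefly, cells in 96-well plates were exposed to five compound concentrations for 48 h, and endpoints were estimated by linear interpolation. TGI: total growth inhibition.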
What was measured:
Test in all cases: NCI-60 cell line screen, 48 h
PC-3 prostate = test system: PC-3 prostate
MOLT-4 leukemia = test system: MOLT-4 leukemia
SF-295 CNS = test system: SF-295 CNS
SW-620 colon = test system: SW-620 colon
SF-268 CNS = test system: SF-268 CNS
SK-MEL-5 melanoma = test system: SK-MEL-5 melanoma
BT-549 breast = test system: BT-549 breast
MCF7 breast = test system: MCF7 breast
NCI/ADR-RES ovarian = test system: NCI/ADR-RES ovarian
MALME-3M melanoma = test system: MALME-3M melanoma
A549 NSCLC = test system: A549 NSCLC
RPMI-8226 leukemia = test system: RPMI-8226 leukemia
COLO 205 colon = test system: COLO 205 colon
SNB-19 CNS = test system: SNB-19 CNS
OVCAR-3 ovarian = test system: OVCAR-3 ovarian
RXF 393 renal = test system: RXF 393 renal
UO-31 renal = test system: UO-31 renal
A498 renal = test system: A498 renal
NCI-H460 lung = test system: NCI-H460 lung
SK-MEL-2 melanoma = test system: SK-MEL-2 melanoma

Molecule COc1ccc2c(c1)CCC1=C/C(=N\NC(N)=O)CCC12C (centres undefined) has a TGI (PC-3 prostate) greater than 10 µM, a TGI (MOLT-4 leukemia) greater than 10 µM and a TGI (SF-295 CNS) greater than 10 µM. The TGI (SW-620 colon) was greater than 10 µM, the TGI (SF-268 CNS) was greater than 10 µM and the TGI (SK-MEL-5 melanoma) was greater than 10 µM. For the same molecule, the TGI (BT-549 breast) was greater than 10 µM, the TGI (MCF7 breast) was greater than 10 µM and the TGI (NCI/ADR-RES ovarian) was greater than 10 µM. It also gave a TGI (MALME-3M melanoma) greater than 10 µM, a TGI (A549 NSCLC) greater than 10 µM and a TGI (RPMI-8226 leukemia) greater than 10 µM. For the same molecule, the TGI (COLO 205 colon) was greater than 10 µM, the TGI (SNB-19 CNS) was greater than 10 µM and the TGI (OVCAR-3 ovarian) was greater than 10 µM.

Molecule CC(=O)c1sc(Nc2ccc(Cl)c(Cl)c2)nc1C has a TGI (RXF 393 renal) greater than 100 µM, a TGI (UO-31 renal) greater than 100 µM and a TGI (MOLT-4 leukemia) of 83.8 µM. It also gave a TGI (SF-295 CNS) greater than 100 µM, a TGI (SW-620 colon) greater than 100 µM and a TGI (A498 renal) greater than 100 µM. For the same molecule, the TGI (SF-268 CNS) was greater than 100 µM, the TGI (SK-MEL-5 melanoma) was greater than 100 µM and the TGI (BT-549 breast) was greater than 100 µM. For the same molecule, the TGI (MCF7 breast) was greater than 100 µM, the TGI (NCI/ADR-RES ovarian) was greater than 100 µM and the TGI (MALME-3M melanoma) was greater than 100 µM. For the same molecule, the TGI (A549 NSCLC) was greater than 100 µM, the TGI (RPMI-8226 leukemia) was greater than 100 µM and the TGI (COLO 205 colon) was greater than 100 µM. For the same molecule, the TGI (NCI-H460 lung) was greater than 100 µM, the TGI (SNB-19 CNS) was greater than 100 µM and the TGI (OVCAR-3 ovarian) was greater than 100 µM.

Molecule CN(NC(=O)/C(=C\c1ccco1)NC(=O)c1ccccc1)c1cn[nH]c(=O)c1Cl has a TGI (RXF 393 renal) greater than 100 µM, a TGI (UO-31 renal) greater than 100 µM and a TGI (PC-3 prostate) greater than 100 µM. The TGI (MOLT-4 leukemia) was 93.3 µM, the TGI (SF-295 CNS) was greater than 100 µM and the TGI (SW-620 colon) was greater than 100 µM. The TGI (SF-268 CNS) was greater than 100 µM, the TGI (SK-MEL-5 melanoma) was 94.9 µM and the TGI (MCF7 breast) was greater than 100 µM. It also gave a TGI (NCI/ADR-RES ovarian) greater than 100 µM, a TGI (SK-MEL-2 melanoma) greater than 100 µM and a TGI (MALME-3M melanoma) greater than 100 µM. The TGI (A549 NSCLC) was greater than 100 µM, the TGI (RPMI-8226 leukemia) was 50.5 µM and the TGI (COLO 205 colon) was greater than 100 µM. For the same molecule, the TGI (NCI-H460 lung) was greater than 100 µM, the TGI (SNB-19 CNS) was greater than 100 µM and the TGI (OVCAR-3 ovarian) was greater than 100 µM.

O=C1CCCCC(=O)Nc2ccccc2N1 showed a TGI (RXF 393 renal) greater than 100 µM, a TGI (UO-31 renal) greater than 100 µM and a TGI (PC-3 prostate) greater than 100 µM. The TGI (MOLT-4 leukemia) was greater than 100 µM, the TGI (SF-295 CNS) was greater than 100 µM and the TGI (SW-620 colon) was greater than 100 µM. The TGI (A498 renal) was greater than 100 µM, the TGI (SF-268 CNS) was greater than 100 µM and the TGI (SK-MEL-5 melanoma) was greater than 100 µM. For the same molecule, the TGI (BT-549 breast) was greater than 100 µM, the TGI (NCI/ADR-RES ovarian) was greater than 100 µM and the TGI (SK-MEL-2 melanoma) was greater than 100 µM. It also gave a TGI (MALME-3M melanoma) greater than 100 µM, a TGI (A549 NSCLC) greater than 100 µM and a TGI (RPMI-8226 leukemia) greater than 100 µM. It also gave a TGI (COLO 205 colon) greater than 100 µM, a TGI (NCI-H460 lung) greater than 100 µM and a TGI (SNB-19 CNS) greater than 100 µM. For the same molecule, the TGI (OVCAR-3 ovarian) was greater than 100 µM.

For CCCC(=O)Oc1ccc2c(C)cc(=O)oc2c1OC(=O)CCC, the TGI (UO-31 renal) was greater than 100 µM, the TGI (PC-3 prostate) was greater than 100 µM and the TGI (MOLT-4 leukemia) was greater than 100 µM. The TGI (SF-295 CNS) was greater than 100 µM, the TGI (SW-620 colon) was greater than 100 µM and the TGI (A498 renal) was greater than 100 µM. The TGI (SF-268 CNS) was greater than 100 µM, the TGI (SK-MEL-5 melanoma) was greater than 100 µM and the TGI (MCF7 breast) was greater than 100 µM. The TGI (NCI/ADR-RES ovarian) was greater than 100 µM, the TGI (SK-MEL-2 melanoma) was greater than 100 µM and the TGI (MALME-3M melanoma) was greater than 100 µM. The TGI (A549 NSCLC) was greater than 100 µM, the TGI (RPMI-8226 leukemia) was greater than 100 µM and the TGI (COLO 205 colon) was greater than 100 µM. It also gave a TGI (SNB-19 CNS) greater than 100 µM and a TGI (OVCAR-3 ovarian) greater than 100 µM.

Work on O=C1CCCCCC1CC(Sc1ccccc1)Sc1ccccc1 (centres undefined) yielded a TGI (RXF 393 renal) greater than 100 µM, a TGI (UO-31 renal) greater than 100 µM and a TGI (PC-3 prostate) greater than 100 µM. For the same molecule, the TGI (MOLT-4 leukemia) was 47.3 µM, the TGI (SF-295 CNS) was greater than 100 µM and the TGI (SW-620 colon) was greater than 100 µM. For the same molecule, the TGI (A498 renal) was greater than 100 µM, the TGI (SF-268 CNS) was greater than 100 µM and the TGI (SK-MEL-5 melanoma) was greater than 100 µM. It also gave a TGI (MCF7 breast) greater than 100 µM, a TGI (NCI/ADR-RES ovarian) greater than 100 µM and a TGI (SK-MEL-2 melanoma) greater than 100 µM. It also gave a TGI (MALME-3M melanoma) greater than 100 µM, a TGI (A549 NSCLC) greater than 100 µM and a TGI (RPMI-8226 leukemia) greater than 100 µM. It also gave a TGI (COLO 205 colon) greater than 100 µM, a TGI (NCI-H460 lung) greater than 100 µM and a TGI (SNB-19 CNS) greater than 100 µM. For the same molecule, the TGI (OVCAR-3 ovarian) was greater than 100 µM.

Molecule C[C@@H]1OC(=O)C[C@H]2CC(=O)N(CCC3CN(S(=O)(=O)C(F)(F)F)c4ccccc43)C[C@@H]21 (some centres undefined) has a TGI (RXF 393 renal) greater than 100 µM, a TGI (UO-31 renal) greater than 100 µM and a TGI (PC-3 prostate) greater than 100 µM. It also gave a TGI (MOLT-4 leukemia) greater than 100 µM, a TGI (SF-295 CNS) greater than 100 µM and a TGI (SW-620 colon) greater than 100 µM. For the same molecule, the TGI (A498 renal) was greater than 100 µM, the TGI (SK-MEL-5 melanoma) was greater than 100 µM and the TGI (MCF7 breast) was greater than 100 µM. For the same molecule, the TGI (NCI/ADR-RES ovarian) was greater than 100 µM, the TGI (SK-MEL-2 melanoma) was greater than 100 µM and the TGI (MALME-3M melanoma) was greater than 100 µM. It also gave a TGI (A549 NSCLC) greater than 100 µM, a TGI (RPMI-8226 leukemia) greater than 100 µM and a TGI (COLO 205 colon) greater than 100 µM. It also gave a TGI (NCI-H460 lung) greater than 100 µM, a TGI (SNB-19 CNS) greater than 100 µM and a TGI (OVCAR-3 ovarian) greater than 100 µM.

Cc1n[nH]c(=O)n1/N=C/c1ccncc1 gave a TGI (RXF 393 renal) greater than 100 µM, a TGI (UO-31 renal) greater than 100 µM and a TGI (MOLT-4 leukemia) greater than 100 µM. The TGI (SF-295 CNS) was greater than 100 µM, the TGI (SW-620 colon) was greater than 100 µM and the TGI (A498 renal) was greater than 100 µM. It also gave a TGI (SF-268 CNS) greater than 100 µM, a TGI (SK-MEL-5 melanoma) greater than 100 µM and a TGI (NCI/ADR-RES ovarian) greater than 100 µM. For the same molecule, the TGI (SK-MEL-2 melanoma) was greater than 100 µM, the TGI (MALME-3M melanoma) was greater than 100 µM and the TGI (A549 NSCLC) was greater than 100 µM. The TGI (COLO 205 colon) was greater than 100 µM, the TGI (NCI-H460 lung) was greater than 100 µM and the TGI (SNB-19 CNS) was greater than 100 µM. It also gave a TGI (OVCAR-3 ovarian) greater than 100 µM.

CC(=O)OC1CC[C@@]2(C)C(C1)CC(OC(C)=O)[C@@H]1C2CC(OC(C)=O)[C@]2(C)C(C(C)CC=C(c3ccc(Cl)cc3)c3ccc(Cl)cc3)CCC12 (some centres undefined) showed a TGI (UO-31 renal) greater than 100 µM, a TGI (PC-3 prostate) greater than 100 µM and a TGI (MOLT-4 leukemia) greater than 100 µM. For the same molecule, the TGI (SF-295 CNS) was greater than 100 µM, the TGI (SW-620 colon) was greater than 100 µM and the TGI (SF-268 CNS) was greater than 100 µM. It also gave a TGI (SK-MEL-5 melanoma) greater than 100 µM, a TGI (MCF7 breast) greater than 100 µM and a TGI (NCI/ADR-RES ovarian) greater than 100 µM. For the same molecule, the TGI (A549 NSCLC) was greater than 100 µM, the TGI (RPMI-8226 leukemia) was 56.8 µM and the TGI (COLO 205 colon) was greater than 100 µM. For the same molecule, the TGI (NCI-H460 lung) was greater than 100 µM and the TGI (SNB-19 CNS) was greater than 100 µM.

CC1CN=C(NS(=O)(=O)c2cc(C(=O)Nc3ccc(F)cc3)c(Cl)cc2S)NN1 (centres undefined) gave a TGI (UO-31 renal) greater than 100 µM, a TGI (PC-3 prostate) greater than 100 µM and a TGI (MOLT-4 leukemia) greater than 100 µM. It also gave a TGI (SF-295 CNS) greater than 100 µM, a TGI (SW-620 colon) greater than 100 µM and a TGI (A498 renal) of 64.1 µM. For the same molecule, the TGI (SF-268 CNS) was greater than 100 µM, the TGI (SK-MEL-5 melanoma) was greater than 100 µM and the TGI (BT-549 breast) was greater than 100 µM. It also gave a TGI (MCF7 breast) greater than 100 µM, a TGI (NCI/ADR-RES ovarian) greater than 100 µM and a TGI (SK-MEL-2 melanoma) of 76.7 µM. The TGI (MALME-3M melanoma) was 70.1 µM, the TGI (A549 NSCLC) was greater than 100 µM and the TGI (RPMI-8226 leukemia) was greater than 100 µM. It also gave a TGI (COLO 205 colon) greater than 100 µM, a TGI (NCI-H460 lung) greater than 100 µM and a TGI (SNB-19 CNS) greater than 100 µM. It also gave a TGI (OVCAR-3 ovarian) greater than 100 µM.

O=[N+]([O-])C(=C(Nc1ccccc1)Nc1ccccc1)/C(Cl)=C(\Cl)Br was tested, and the TGI (UO-31 renal) was 21.7 µM, the TGI (PC-3 prostate) was 30.7 µM and the TGI (MOLT-4 leukemia) was 13.4 µM. The TGI (SF-295 CNS) was 29.5 µM, the TGI (SW-620 colon) was 18.8 µM and the TGI (A498 renal) was 35.6 µM. For the same molecule, the TGI (SF-268 CNS) was 43.1 µM, the TGI (BT-549 breast) was 60.5 µM and the TGI (MCF7 breast) was 33.9 µM. It also gave a TGI (NCI/ADR-RES ovarian) of 29.7 µM, a TGI (SK-MEL-2 melanoma) of 38.3 µM and a TGI (MALME-3M melanoma) of 37.1 µM. The TGI (A549 NSCLC) was 51.1 µM, the TGI (RPMI-8226 leukemia) was 18.8 µM and the TGI (NCI-H460 lung) was 54.5 µM. The TGI (OVCAR-3 ovarian) was 19.4 µM.
